First the molecules themselves.
T1: Prostaglandin G/H synthase 2 (Homo sapiens, UniProt P35354)
T1 sequence (P35354 whole entry): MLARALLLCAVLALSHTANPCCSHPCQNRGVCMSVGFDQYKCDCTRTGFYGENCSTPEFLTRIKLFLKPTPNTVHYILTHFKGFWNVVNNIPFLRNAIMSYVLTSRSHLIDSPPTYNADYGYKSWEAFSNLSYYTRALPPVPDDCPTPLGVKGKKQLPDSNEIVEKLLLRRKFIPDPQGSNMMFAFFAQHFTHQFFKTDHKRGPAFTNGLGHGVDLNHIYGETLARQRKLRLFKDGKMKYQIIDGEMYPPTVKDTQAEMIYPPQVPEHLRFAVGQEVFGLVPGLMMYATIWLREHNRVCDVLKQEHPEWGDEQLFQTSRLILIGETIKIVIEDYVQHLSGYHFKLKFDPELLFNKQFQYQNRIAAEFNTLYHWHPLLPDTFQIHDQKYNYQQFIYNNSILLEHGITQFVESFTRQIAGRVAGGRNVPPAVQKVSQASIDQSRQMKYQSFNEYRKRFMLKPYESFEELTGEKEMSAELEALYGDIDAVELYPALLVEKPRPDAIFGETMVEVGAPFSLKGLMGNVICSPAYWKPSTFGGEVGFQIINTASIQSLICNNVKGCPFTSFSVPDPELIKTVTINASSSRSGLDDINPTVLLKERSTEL

T2: Prostaglandin G/H synthase 2 (Homo sapiens) (UniProt P35354)
T2 sequence (whole entry): T1 sequence (P35354 whole entry)

B1: Prostaglandin G/H synthase 2 (Homo sapiens), P35354 (protein)
chain: T1 sequence (P35354 whole entry)

Activity calls are given as the source filed them. The rule behind the calls is not given here.

47 molecules from ChEMBL document CHEMBL1150665, “Screening of ubiquitous plant constituents for COX-2 inhibition with a scintillation proximity based assay” (J Nat Prod, 2002) can be followed below.

By IC50 is commonly meant the concentration at which inhibition is half-maximal. Read a high IC50 as lower potency. Broadly, the Km is the substrate concentration at which the rate is half of its maximum. By inhibition is commonly meant the percentage by which the read-out fell short of the control.

The first data set has as its target T1, Prostaglandin G/H synthase 2. In words: Inhibition of COX2.
Conditions: not given
Take `O=c1cc(-c2ccc(O)c(O)c2)oc2cc(O)cc(O)c12` [LUTEOLIN]: the 50% inhibitory concentration (IC50) is less than 349 µM.

The target of the next data set is T2, Prostaglandin G/H synthase 2 (Homo sapiens). In words: Inhibition of COX2 at 10 uM by scintillation proximity assay.
Conditions: not given
For `C=CCc1ccc(O)c(OC)c1`, the outcome was inactive.
`Oc1cccc(O)c1O`: the outcome was inactive.
With `O=C/C=C/c1ccccc1`, the result was inactive.
Same read-out and setting: with `O=C(O)/C=C/c1ccc(O)c(O)c1` the entry was “inactive”.
On the same count and under the same terms, for `O=c1c(O)c(-c2cc(O)c(O)c(O)c2)oc2cc(O)cc(O)c12` the value was “inactive”.

The target of another data set is T1, Prostaglandin G/H synthase 2. In words: Inhibition of COX2 in LPS-stimulated bone marrow derived mast cells.
Conditions: not given
Consider `O=c1cc(-c2ccc(O)c(O)c2)oc2cc(O)cc(O)c12` [LUTEOLIN], for which 8.73 µM corresponded to half-maximal inhibition (IC50).

Substrate in the next data set: CCCCC/C=C\C/C=C\C/C=C\C/C=C\CCCC(=O)O
In words: Activity of COX2.
Conditions: not given
As to B1, the Michaelis-Menten constant (Km) turned out to be 1 µM.

In the next data set the target is T1, Prostaglandin G/H synthase 2.
Conditions: not given
Consider `c1ccc(-c2ccc(-c3ccccc3)cc2)cc1` [TANNIN PYROGALLOL], for which the IC50 is 144 µM.
With `C[C@H]1[C@H](C)CC[C@]2(C(=O)O)CC[C@]3(C)C(=CC[C@@H]4[C@@]5(C)CC[C@H](O)C(C)(C)[C@@H]5CC[C@]43C)[C@H]12` [URSOLIC ACID], the midpoint of inhibition, the IC50, lay at 86 µM.

The target in another data set is T2, Prostaglandin G/H synthase 2 (Homo sapiens). The settings on record: at 100 µM.
Description: Inhibition of COX2 at 100 uM by scintillation proximity assay
`Cc1ccc(C(C)C)c(O)c1` returned an inhibition of less than 30%.
`O=c1ccc2cc(O[C@@H]3O[C@H](CO)[C@@H](O)[C@H](O)[C@H]3O)c(O)cc2o1` had an inhibition of less than 30%.
As for `C[C@@H]1O[C@@H](O[C@H]2C[C@@H](O)[C@]3(CO)[C@H]4[C@H](O)C[C@]5(C)[C@@H](C6=CC(=O)OC6)CC[C@]5(O)[C@@H]4CC[C@]3(O)C2)[C@H](O)[C@H](O)[C@H]1O`, the inhibition is less than 30%.
`O=C(O)c1cc(O)c(O)c(O)c1` displayed an inhibition of less than 30%.
Consider `C[n+]1cccc(C(=O)[O-])c1`, for which the inhibition is less than 30%.
In turn, `CC12CCC(CC1)C(C)(C)O2` had an inhibition of less than 30%.
The same measure, in the same setting: with `CC(C)[C@@H]1CC[C@@H](C)C[C@H]1O` the figure was less than 30%; with `O=C1C[C@@H](c2ccc(O)cc2)Oc2cc(O)cc(O)c21`, less than 30%.
Molecule `CC(C)=CCC[C@](C)(O)[C@H]1CC=C(C)CC1` yielded an inhibition of less than 30%.
`COc1cc2ccc(=O)oc2cc1O` came in with an inhibition of less than 30%.
Turning to `O=c1cc(-c2ccc(O)c(O)c2)oc2cc(O)cc(O)c12` [LUTEOLIN], the inhibition is less than 30%.
Same read-out and setting: with `CC(C)=CCC[C@@H](C)CC=O` the figure was less than 30%; with `Oc1cccc(O)c1O`, 57%; with `CN1[C@@H]2CC[C@H]1C[C@@H](OC(=O)C(CO)c1ccccc1)C2` (mixture of isomers), less than 30%.
On the same count and under the same terms, for `CN1[C@@H]2C[C@@H](OC(=O)[C@H](CO)c3ccccc3)C[C@H]1[C@@H]1O[C@H]12` the value was less than 30%; for `O=C/C=C/c1ccccc1`, 45%; for `COc1cc([C@@H]2c3cc4c(cc3[C@H](O)[C@H]3COC(=O)[C@H]23)OCO4)cc(OC)c1OC`, less than 30%.
On the same count and under the same terms, for `O=C(O)/C=C/c1ccc(O)cc1` the value was less than 30%; for `O=C(O)CCCCC1CCSS1` (stereo not drawn), less than 30%.
In the case of `OC[C@H]1O[C@@H](Oc2ccc(O)cc2)[C@H](O)[C@@H](O)[C@@H]1O`, the inhibition is less than 30%.
As for `Cn1c(=O)c2[nH]cnc2n(C)c1=O`, the inhibition is less than 30%.
Still for that read-out and setting: with `O=C(O)[C@]1(O)C[C@H](O)[C@@H](O)[C@@H](O)C1` the figure was less than 30%.
Molecule `O=C(O)C1=C[C@@H](O)[C@@H](O)[C@H](O)C1` displayed an inhibition of less than 30%.
Molecule `CC12CCC(CC1=O)C2(C)C` (stereo not drawn) yielded an inhibition of less than 30%.
`O=C(O)c1cccnc1` came in with an inhibition of less than 30%.
On to `O=c1cc(-c2ccccc2)oc2cc(O)cc(O)c12`, for which the inhibition is less than 30%.
The molecule `CC(C)C1=CC2=CC[C@@H]3[C@](C)(CCC[C@@]3(C)C(=O)O)[C@H]2CC1` had an inhibition of less than 30%.
`CC[C@H]1CN2CCc3cc(OC)c(OC)cc3[C@@H]2C[C@@H]1C[C@H]1NCCc2cc(OC)c(OC)cc21` returned an inhibition of less than 30%.
Molecule `O=c1ccc2ccc(O)cc2o1` registered an inhibition of less than 30%.
Molecule `C[C@@H]1O[C@@H](OC[C@H]2O[C@@H](Oc3c(-c4ccc(O)c(O)c4)oc4cc(O)cc(O)c4c3=O)[C@H](O)[C@@H](O)[C@@H]2O)[C@H](O)[C@H](O)[C@H]1O` returned an inhibition of less than 30%.
`O=C(O)C1CCCCN1` (stereo not drawn) gave an inhibition of less than 30%.
The molecule `C=C(C)[C@H]1CC=C(C)CC1` came in with an inhibition of less than 30%.
`C=C(C)[C@@H]1CC[C@]2(CO)CC[C@]3(C)[C@H](CC[C@@H]4[C@@]5(C)CC[C@H](O)C(C)(C)[C@@H]5CC[C@]43C)[C@@H]12` showed an inhibition of less than 30%.
As to `O=C(O)c1cc(O)c2c(c1)[C@@H]([C@H]1c3cc(C(=O)O)cc(O)c3C(=O)c3c(O[C@@H]4O[C@H](CO)[C@@H](O)[C@H](O)[C@H]4O)cccc31)c1cccc(O[C@@H]3O[C@H](CO)[C@@H](O)[C@H](O)[C@H]3O)c1C2=O`, the inhibition was less than 30%.
In the case of `O=C(O)/C=C/c1ccc(O)c(O)c1`, the inhibition is 32%.
The same measure, in the same setting: for `CC(C)=CCCC(C)CCO` (racemic) the value was less than 30%; for `Oc1ccc(O)cc1`, less than 30%.
The molecule `Cn1c(=O)c2c(ncn2C)n(C)c1=O` gave an inhibition of less than 30%.
On the same count and under the same terms, for `C[N+]1(C)CCC[C@H]1C(=O)[O-]` the value was less than 30%; for `O=C(/C=C/c1ccc(O)c(O)c1)O[C@@H]1C[C@](O)(C(=O)O)C[C@@H](O)[C@H]1O`, less than 30%.
For `O=c1c(O)c(-c2cc(O)c(O)c(O)c2)oc2cc(O)cc(O)c12`, the inhibition was 62%.
The same measure, in the same setting: for `COc1ccc(C(=O)O)cc1O` the value was less than 30%; for `O=c1ccc2ccccc2o1`, less than 30%.
